Literature values as cited in US9779901B2, “High temperature material compositions for high temperature thermal cutoff devices” (Therm-O-Disc, Incorporated, priority 2008, dated 2017).

Settings: estimated melting point temperature ranges of candidate organic compounds (Table 2); some compounds have several values, partly in parentheses, because analytic techniques differ; cited from earlier work

SMILES	Melting Point
Cc1ccc2c(c1)[nH]c1ccccc12 [Example 133]	259° ° C.
c1ccc(Nc2ccc(-c3ccc(Nc4ccccc4)cc3)cc2)cc1 [Example 32]	244-245° ° C.
Cn1c(=O)c(=O)n(C)c2ccccc21 [Example 120]	256-258° ° C.
Nc1nc(N)c2ccccc2n1 [Example 78]	250-252° ° C.
Cn1c(=S)c2c(ncn2C)n(C)c1=O [Example 52]	246-247° ° C.
O=C1C(=O)c2cccnc2-c2ncccc21 [Example 126]	258° ° C.
Nc1ccc(S(=O)(=O)Nc2cnc3ccccc3n2)cc1 [Example 58]	247-248° ° C.
O=C1C2C(c3ccccc3)NC(c3ccccc3)C1C(c1ccccc1)NC2c1ccccc1 (centres unmarked) [Example 106]	255-256° ° C.
NC(=O)c1cccc2nc3ccccc3nc12 [Example 42]	245-246° ° C.
COc1cccc2c1CCCC2N (centres unmarked) [Example 76]	249-250° ° C.
CC(=O)[C@H]1CC[C@H]2[C@@H]3CCc4cc(O)ccc4[C@H]3CC[C@]12C [Example 65]	247-249° ° C.
O=C1C=CC=CC1=C1Nc2ccccc2N1 [Example 15]	242° ° C.
COC(=O)c1cc2c(cn1)[nH]c1ccccc12 [Example 153]	261-262° ° C.
CC(C)c1nc2nc(N)nc(N)c2nc1C(C)C [Example 55]	246° ° C.
Oc1ccc2cccc(O)c2n1 [Example 146]	260° ° C.
N#Cc1cc(C#N)cc(C#N)c1 [Example 157]	261-263° ° C.
C[C@]12CC[C@@H]3c4ccc(O)cc4C=C[C@H]3[C@@H]1CCC2=O [Example 186]	264-265° ° C.
CC1(C)Oc2ccc(C#N)cc2[C@@H](N2CCCC2=O)[C@@H]1O [Example 18]	242-244° ° C.
c1cc(-c2sc(-c3ccncc3)c(-c3ccncc3)c2-c2ccncc2)ccn1 [Example 116]	256-258° ° C.
Cc1cc(C)c(C#N)c(=S)[nH]1 [Example 134]	259-260° ° C.
Cl.c1ccc(N=C(Nc2ccccc2)Nc2ccccc2)cc1 [Example 3]	241° ° C.

SMILES	Melting Point
Nc1cccc2c1C(=O)c1ccccc1C2=O [Example 96]	253-254° ° C.
c1ccc(-c2c3ccccc3c(-c3ccccc3)c3ccccc23)cc1 [Example 54]	246-248° ° C.
C[C@]12CCC(=O)C[C@H]1CC[C@@H]1[C@@H]2CC[C@]2(C)[C@@H](c3ccc(=O)oc3)CC[C@]12O [Example 16]	242-245° ° C.
Nc1nc2ccc([N+](=O)[O-])cc2s1 [Example 97]	253° ° C.
OCC(CO)(CO)CO [Example 144]	260° ° C.
Nc1ccc(N=Nc2ccc(N)cc2)cc1 [Example 81]	250° ° C.
Oc1cc(-c2ccccc2)nc2ccccc12 [Example 114]	255-257° ° C.
O=C1CN(N=C/C=C/c2ccc([N+](=O)[O-])o2)C(=O)N1 [Example 151]	261° ° C.
N#Cc1cncnc1N [Example 104]	254-256° ° C.
CCCOc1ccccc1-c1nc2nn[nH]c2c(=O)[nH]1 [Example 1]	241° ° C.
NC1=CC(=O)c2ncccc2C1=O [Example 131]	258-260° ° C.
O=C(Nc1ccccc1)C(=O)Nc1ccccc1 [Example 91]	252-254° ° C.
OC1C2CC3CC(C2)CC1C3 (centres unmarked) [Example 140]	260-265° ° C.
CN/C(=N\c1ccc(C2=NNC(=O)CC2C)cc1)NC#N (centres unmarked) [Example 180]	264-265° ° C.
O=C1C(=O)c2cccc3cccc1c23 [Example 27]	243-245° ° C.
COc1ccc2nc(S)[nH]c2c1 [Example 170]	263-264° ° C.
O=c1ccc2[nH]cc(C3=CCNCC3)c2[nH]1 [Example 66]	248° ° C.
Oc1nc2ccccc2nc1-c1ccccc1 [Example 64]	247° ° C.
Cc1c(C)c2cccnc2c2ncccc12 [Example 195]	265-266° ° C.
Nc1ccc2nc(N)nc(N)c2c1 [Example 109]	255-258° ° C.
O=[N+]([O-])c1c2ccccc2c2ccc3cccc4ccc1c2c43 [Example 111]	255-256° ° C.

SMILES	Melting Point
c1ccc2c(C(c3c[nH]c4ccccc34)c3c[nH]c4ccccc34)c[nH]c2c1 [Example 38]	244-246° ° C.
Cn1c(=O)c2[nH]cnc2n(C)c1=O [Example 179]	264° ° C.
Cc1ccc(NC(=O)Nc2ccc(C)cc2)cc1 [Example 167]	262-263° ° C.
O=C(Nc1ccccc1)Nc1ccccc1 [Example 49]	246-248° ° C.
Cc1cc2cc3ccccc3cc2cc1C [Example 93]	252° ° C.
CCCC1C(=O)N2C(N(C)C)=Nc3ccc(C)cc3N2C1=O (centres unmarked) [Example 62]	247-248° ° C.
CN[C@H]1CC[C@@H](c2ccccc2)c2ccccc21 [Example 6]	241-242° ° C.
CN(C)c1ncnc2nc[nH]c12 [Example 89]	251-253° ° C.
COc1ccc(-c2cc(=O)c3ccc(O)cc3o2)cc1 [Example 196]	265-267° ° C.
CCC(N)Cc1cc(OC)c(C)cc1OC (centres unmarked) [Example 46]	245-246.5° ° C.
Nc1cc(N)nc(N)n1 [Example 70]	249-251° ° C.
N#CC(CCN1CCC(C(=O)ON2C(=O)CCC2=O)(c2ccccc2)CC1)(c1ccccc1)c1ccccc1 [Example 17]	242-244° ° C.
[H]/N=C(\N/C(=N/[H])Nc1ccc(Cl)cc1)NC(C)C [Example 30]	244-245° ° C.
COc1nc(C)nc(N)n1 [Example 135]	259-261° ° C.
CN1C(=O)C(=NNC(N)=S)c2ccccc21 [Example 43]	245° ° C.
Cc1ccc2cc3ccc(C)cc3cc2c1 [Example 7]	241° ° C.
Nc1nnc(-c2ccccc2)o1 [Example 9]	241-243° ° C.
CCCN(CCC)CCc1cccc2c1CC(=O)N2 [Example 2]	241-243° ° C.
CC(=O)Oc1c(C)c(C)c2c(c1C)CCC(C)(CCN(C)C)O2 (centres unmarked) [Example 172]	263-270° ° C.
NC1=CC(=O)c2cccnc2C1=O [Example 177]	263° ° C.
